The test system of data set [1] is Wnt signal. Description: Detection of Wnt signal (TOPglow luciferase reporter, LiCl-stimulated). The format is cell-based. The following applies: Homo sapiens; HEK293 clone carrying pNeo-TOP reporter; LiCl stimulation; luciferase luminescence; read-out: Test Example 1 IC50 (concentration required for inhibiting the Wnt signal activity by 50%). The protocol: pcDNA3.1(+) (invitrogen) was cleaved with restriction enzymes BglII and NotI, and an adapter BEHKS having a sequence shown below (containing restriction enzyme sites BglII, EcoRI, HindIII, KpnI, SacI and NotI) was inserted thereinto, thereby producing a plasmid pNeo-HKS.
Subsequently, a fragment having a length of about 2700 bp (containing a Wnt-responsive sequence and a luciferase gene), which was prepared by cleaving from a TOPglow plasmid contained in a TOPglow/FOPglow TCF Reporter Kit (upstate Catalog#17-366) with restriction enzymes HindIII and KpnI, was inserted between HindIII and KpnI in pNeo-HKS, thereby producing a plasmid pNeo-TOP. The plasmid pNeo-TOP was introduced into human fetus-derived renal cell strain HEK293, then a compound was selected using G418, and then a cell clone strain was established by a limiting dilution method. The cell clone strain was subjected to a Wnt signal detection test.
The cell clone strain was subcultured in a D-MEM glucose-rich culture medium (Wako Pure Chemical Industries, Ltd.) containing 10% FBS, and cells in a growth phase were used in the test. Cells were collected using trypsin-EDTA, the number of the cells was counted, and then the cells were suspended in a D-MEM glucose-rich culture medium containing 10% FBS so that the number of cells became 2×10^5 cells/mL. The cell suspension was added to a 96-well cell culture plate (Greiner Bio-One Co., Ltd., product number: 655083) in an amount of 0.1 mL/well and then cultured overnight in a 5% CO2 incubator (37° C.). After the culturing, a substance to be tested, which was dissolved in DMSO, was diluted with a D-MEM glucose-rich culture medium containing 10% of FBS and 80 mM of LiCl to produce a sample solution. The sample solution (0.1 mL) was added to each well and then cultured in a 5% CO2 incubator (37° C.) […]. Six hours after the addition of the sample solution, a supernatant was removed from each well, and then 50 μL of Bright-Glo™ Luciferase substrate (Promega, product number: E2620) was added thereto. The plate was put on a plate mixer for several seconds, and then the emission of light from each well was measured using a EnVision™ Multilabel plate reader (PerkinElmer Co., Ltd.). The Wnt signal activation rate (%) of each well was determined, and a concentration (IC50) which is required for inhibiting the Wnt signal activity of a substance of interest by 50% was calculated, wherein the luminosity of a well to which a sample solution was not added and LiCl was added was defined as a 100% Wnt signal activity and the luminosity of a well to which either of a sample solution or LiCl was not added was defined as a 0% Wnt signal activity.

Data set [2] is described as follows: Evaluation of metabolic stability. The format is in vitro ADME, human. The following applies: 0.2 mg/mL HLM, 0.1 μM test substance, 15 minutes at 37° C., with vs without NADPH production. The protocol:
A test substance was dissolved in DMSO so that the concentration of the resultant solution became 20 mM, and the solution was diluted with DMSO so that the concentration of the resultant solution became 1 mM. The metabolic stability of the test substance was evaluated using a human liver microsome (HLM) in which human liver was pooled. An assay buffer solution contained 0.2 mg/mL of HLM, a 0.1 M of phosphate potassium buffer solution (pH 7.4), 0.1 mM of EDTA, 0.33 mM of NADP+, 8 mM of glucose-6-phosphate, 0.1 U/mL of glucose-6-phosphate dehydrogenase, 6 mM of MgCl2, 0.1 μM of a test substance (final concentration in DMSO: 0.01%) in 0.15 mL of the final incubation volume. Fifteen minutes after the initiation of the reaction at 37° C., 0.15 mL of a acetonitrile/methanol mixed solution (7:3, by volume) was added to the solution to terminate the reaction. After centrifugation, the resultant supernatant was analyzed by LC-MSMS, peak areas were compared under the presence or absence of the production of NADPH, and the residual ratio of the test substance was calculated.

Data set [3] in a line: Evaluation of solubility (DMSO stock into PBS, HPLC-UV). The conditions noted are these: Dulbecco's phosphate-buffered saline pH 7, room temperature, about 15 minutes shaking, values greater than 200 μM regarded as 200 μM, read-out: Test Example 3 solubility. The format is physicochemical. As to the method: To 0.25 mL of a test solution a mentioned below was added 2.5 μL of a DMSO solution having a compound concentration of 20 mM. The resultant solution was shaken at room temperature for about 15 minutes (the conditions for the shaking are mentioned below). Subsequently, a supernatant was collected by a suction filtration under a reduced pressure. A DMSO solution having a compound concentration of 200 μM was used as a standard solution, and the concentration of a compound in a filtrate which was quantified by a HPLC-UV method was employed as a solubility (rounded off to the whole number). In this evaluation, since a value 200 μM became the upper limit operationally, all of quantification values greater than 200 μM were regarded as 200 μM.
Test solution: GIBCO (registered trade name) Dulbecco's phosphate-buffered saline (pH 7, Life Technologies Corporation)
Conditions for shaking: a microplate shaker N-704 (Nissinrika Corporation), speed 6

Data set [4] in a line: PAMPA test (parallel artificial membrane permeability assay). Type of data set: in vitro ADME. The conditions noted are these: phosphate buffer pH 6.8, about 200 μM, about 5 hours, room temperature, read-out: Test Example 4 membrane permeation coefficient Pe. As to the method: A test solution (see below) was stirred while shaking at room temperature for about 5 hours using a 96-well PAMPA plate (BD Biosciences) in which a lipid had been precoated onto a polyvinylidene fluoride (PVDF) film to evaluate the membrane permeation coefficient Pe (cm/s) of each compound dissolved in the test solution (concentration: about 200 μM) upon the transport of the compound from a donor side to an acceptor side through a lipid membrane. The Pe value was calculated in accordance with equations 1 and 2, and the concentration of the compound on the donor side and the acceptor side was measured by a HPLC-UV method. In 0.3 mL of the test solution on the donor side is contained about 1% (v/v) of DMSO, since 3 μL of a DMSO solution containing the compound at a concentration of 20 mM was added to the test solution.
Test solution: a phosphate buffer solution having a pH value of 6.8 (90 mM of phosphate, 48 mM of NaCl, 5.4 mM of KCl)
Conditions for stirring: a multishaker MS-300 (AS ONE Corporation), 350 rpm
[formula] CD(t): compound concentration in donor well at time t CA(t): compound concentration in acceptor well at time t VD: donor well volume (0.3 mL) VA: acceptor well volume (0.2 mL) A: filter area (0.3 cm^2)
On the technique in general: In PAMPA a lipid-coated filter parts donor from acceptor wells.

The mark [5] stands for this setting: aqueous buffer, kinetic from dmso stock.

Converted amounts (≈) assume the structure as drawn. Like-named read-outs stand apart in the source and are kept apart here.

As for `C=CCN1CC(=O)N2[C@@H](Cc3c(F)cc(O)cc3F)C(=O)N(Cc3cccc(N4CC(N5CCN(C)CC5)C4)n3)C[C@@H]2N1C(=O)NCc1ccccc1` [Example 14, (6S,9aS)-N-Benzyl-6-((2,6-difluoro-4-hydroxyphenyl)methyl)-8-((6-(3-(4-methylpiperazin-1-yl)azetidin-1-yl)pyridin-2-yl)methyl)-4,7-dioxo-2-(prop-2-en-1-yl)-octahydro-1H-pyrazino[2,1-c][1,2,4]triazine-1-carboxamide], the IC50 in data set [1] was 270 nM. In data set [2], the “Test Example 2 residual ratio of the test substance” value (“Test Example 2 residual ratio” below) amounted to 69%. In addition, the solubility (in general, the dissolved amount per volume that the medium holds) in data set [3] (setting [5]) was determined as 197 µM (≈ 144 µg/mL). In addition, in data set [4], the Papp worked out at 0.39 ×10⁻⁶ cm/s.
The like results for `C=CCN1CC(=O)N2[C@@H](Cc3ccc(O)cc3F)C(=O)N(Cc3cccc(N4CC(N5CCN(C)C[C@@H]5C)C4)n3)C[C@@H]2N1C(=O)NCc1ccccc1` [Example 15, (6S,9aS)-N-Benzyl-8-((6-(3-((2S)-2,4-dimethylpiperazin-1-yl)azetidin-1-yl)pyridin-2-yl)methyl)-6-((2-fluoro-4-hydroxyphenyl)methyl)-4,7-dioxo-2-(prop-2-en-1-yl)-octahydro-1H-pyrazino[2,1-c][1,2,4]triazine-1-carboxamide] were, in that order, 75 nM, 45%, 195 µM (≈ 142 µg/mL) and 2.38 ×10⁻⁶ cm/s.
Take `C=CCN1CC(=O)N2[C@@H](Cc3c(F)cc(O)cc3F)C(=O)N(Cc3cccc(N4CC(N5CCN(CC)[C@H](C)C5)C4)n3)C[C@@H]2N1C(=O)NCc1ccccc1` [Example 23, (6S,9aS)-N-Benzyl-6-((2,6-difluoro-4-hydroxyphenyl)methyl)-8-((6-(3-((3R)-4-ethyl-3-methylpiperazin-1-yl)azetidin-1-yl)pyridin-2-yl)methyl)-4,7-dioxo-2-(prop-2-en-1-yl)-octahydro-1H-pyrazino[2,1-c][1,2,4]triazine-1-carboxamide]: the IC50 in data set [1] worked out at 190 nM. Besides, the “Test Example 2 residual ratio” value in data set [2] worked out at 38%. Moreover, the solubility in data set [3] (setting [5]) amounted to 195 µM (≈ 148 µg/mL). In data set [4], the Papp stood at 0.43 ×10⁻⁶ cm/s.
Turning to `C=CCN1CC(=O)N2[C@@H](Cc3c(F)cc(O)cc3F)C(=O)N(Cc3cccc(N4CC(N5CCN(CC)CC5)C4)n3)C[C@@H]2N1C(=O)NCc1ccccc1` [Example 13, (6S,9aS)-N-Benzyl-6-((2,6-difluoro-4-hydroxyphenyl)methyl)-8-((6-(3-(4-ethylpiperazin-1-yl)azetidin-1-yl)pyridin-2-yl)methyl)-4,7-dioxo-2-(prop-2-en-1-yl)-octahydro-1H-pyrazino[2,1-c][1,2,4]triazine-1-carboxamide], in data set [1], the IC50 came out at 140 nM. Moreover, in data set [2], the “Test Example 2 residual ratio” value was 56%. Also, the solubility in data set [3] is reported as 200 µM (≈ 149 µg/mL). In addition, the Papp in data set [4] turned out to be 0.52 ×10⁻⁶ cm/s.
Consider `C=CCN1CC(=O)N2[C@@H](Cc3ccc(O)cc3)C(=O)N(Cc3cccc(N4CC(N5CCN(C)C[C@@H]5C)C4)n3)C[C@@H]2N1C(=O)NCc1ccccc1` [Example 6, (6S,9aS)-N-Benzyl-8-((6-(3-((2S)-2,4-dimethylpiperazin-1-yl)azetidin-1-yl)pyridin-2-yl)methyl)-6-((4-hydroxyphenyl)methyl)-4,7-dioxo-2-(prop-2-en-1-yl)-octahydro-1H-pyrazino[2,1-c][1,2,4]triazine-1-carboxamide], for which the IC50 in data set [1] was 250 nM. The “Test Example 2 residual ratio” value in data set [2] amounted to 55%. Also, the solubility in data set [3] (setting [5]) turned out to be 195 µM (≈ 138 µg/mL). The Papp in data set [4] turned out to be 1.27 ×10⁻⁶ cm/s.
On to `C=CCN1CC(=O)N2[C@@H](Cc3ccc(O)cc3F)C(=O)N(Cc3ccc(F)c(N4CC(N(C)CCN(C)C)C4)n3)C[C@@H]2N1C(=O)NCc1ccccc1` [Reference Example 6, (6S,9aS)-N-Benzyl-8-((6-(3-((2-(dimethylamino)ethyl)(methyl)amino)azetidin-1-yl)-5-fluoropyridin-2-yl)methyl)-6-((2-fluoro-4-hydroxyphenyl)methyl)-4,7-dioxo-2-(prop-2-en-1-yl)-octahydro-1H-pyrazino[2,1-c][1,2,4]triazine-1-carboxamide], for which the IC50 in data set [1] was determined as 190 nM. In data set [2], the “Test Example 2 residual ratio” value worked out at 28%. For the same compound, the solubility in data set [3] (setting [5]) was 190 µM (≈ 139 µg/mL). In data set [4], the Papp was 1.7 ×10⁻⁶ cm/s.

The values above are taken from patent publication US9174998B2, “(6S,9aS)-N-benzyl-6-[(4-hydroxyphenyl)methyl]-4,7-dioxo-8-({6-[3-(piperazin-1-yl)azetidin-1-yl]pyridin-2-yl}methyl)-2-(prop-2-en-1-yl)-octahydro-1H-pyrazino[2,1-c][1,2,4]triazine-1-carboxamide compound” (Eisai R&D Management Co., Ltd., priority 2013, dated 2015).
